Reference: patent publication US20150307938A1, “METHOD TO IDENTIFY A NOVEL CLASS OF IMMUNOLOGIC ADJUVANTS” (Lancell, L.L.C., priority 2011, published 2015)
Marks after values point to notes of the source that are not given here.

Test system: full thickness skin
Assay: Whole genome array of skin gene expression after topical DBP (time course)
Type: in vivo, C57BL/6J mice
Experimental: Mice: C57BL/6J female mice obtained from The Jackson Laboratory were used between 8 and 12 weeks of age.
Treatment: Mice were untreated or treated topically on the dorsal side of each ear with […] of dibutylphthalate (DBP). At the designated time points after treatment, the animals were euthanized and the ears washed with 70% isopropanol. Full thickness skin was obtained from the dorsal side of both ears and placed immediately in liquid nitrogen. The time between euthanasia and placement of both skin samples in liquid nitrogen was less than 1 minute. Each sample for RNA extraction contained two dorsal ear skin samples obtained from a single mouse both of whose ears received the same treatment.
RNA Extraction: While in liquid nitrogen, the skin was pulverized with a motorized mortar and pestle (CryoGrinder), transferred by inversion of the mortar directly into 1.5 ml cryogenic vials (Nalgene) and stored in liquid nitrogen until RNA extraction. Total RNA from both ears was extracted by homogenization (Pro200) in TRIzol Reagent (Invitrogen) with 7.5 μg of RNase-free glycogen added to the mixture, according to the manufacturer's directions. The RNA was purified on a solid phase RNeasy MinElute Cleanup column (Qiagen) and eluted with 17 μL of RNase-free water. The samples were stored at −20° C. until use.
Quantification of RNA: RNA yields were quantified by UV absorption using a NanoDrop NG-1000 spectrophotometer, where 1 AU 260 equals 40 μg RNA/ml. Purity was estimated by the 260 and 280 nm absorbance ratio; values between 1.7 and 2.1 were considered acceptable.
Assessment of RNA Quality: The quality of sample RNA was assessed using a RNA 6000 LABCHIP Kit on an Agilent 2100 Bioanalyzer. The Bioanalyzer determines the integrity/purity of the RNA samples and permits the screening of total and mRNA sample degradation and ribosomal RNA contamination. An RNA 6000 ladder was also loaded on a specified well and used as a reference for data analysis and a built-in quality control measure. The quality and integrity of the RNA was determined through visual inspection of each electropherogram. In general, only samples with a RIN (RNA integrity number) of 7 or greater, as determined by the Bioanalyzer, were used for gene arrays. This quality control analysis was repeated following the labeling procedure to ensure that the probes were efficiently labeled and had the correct size before hybridization to the chips. All samples that were run on genome wide arrays were obtained as independent duplicates from two individual mice.
Microarray Data Interpretation: Gene expression was compared between untreated and treated total RNA samples. “Transition” data, which represent the change in expression level for a given gene, are presented as a “weighted difference.” Changes in gene expression level were considered to be significant when the adjusted p values were less than […]. The “gene expression signature” arbitrarily includes only those genes that were transcribed with a weighted increase of 2.0 or greater, which was sustained over the subsequent time points tested.
The weighted difference is a metric that takes into account both the variability between different time-points and the variability between replicates at the same time-point. The calculations are performed for each time-point transition, i.e., 30 minutes vs. 1 hour, 1 hour vs. 2 hours, etc. There are two steps to the calculation: the calculation of a modified Euclidean difference between the two time-points, and the calculation of the Euclidean difference between the replicates within each time-point. The first measure is an unweighted difference, while the final metric given in the spreadsheet “weights” this difference by taking into account the second measure.
In a Euclidean difference calculation, each data point is considered as a vector in a multi-dimensional space, and the actual straight-line distance between the data points is calculated. […]

With CCCCOC(=O)c1ccccc1C(=O)OCCCC [DBP, dibutylphthalate] the “% Shared (DBP-induced genes also TLR-induced)” value (15 min) was 64%, the “DBP Unique genes, number” value (15 min) was 12 and the “TLR-Induced among DBP-induced genes, number” value (15 min) was 21^. For the same compound, the “DBP-Induced genes (≧2x Increased Expression), number” value (15 min, early response genes) was 33*, the “Acot5 Change in Gene Expression (Weighted Difference)” value (15 min to 30 min Transition) was 1.225 and the “Akr1c18 Change in Gene Expression (Weighted Difference)” value (15 min to 30 min Transition) was −0.6119. The “Atp2c2 Change in Gene Expression (Weighted Difference)” value (15 min to 30 min Transition) was 0.1754, the “Btg2 Change in Gene Expression (Weighted Difference)” value (15 min to 30 min Transition) was 5.994 and the “Ccr4 Change in Gene Expression (Weighted Difference)” value (15 min to 30 min Transition) was −0.287. The “Cdh10 Change in Gene Expression (Weighted Difference)” value (15 min to 30 min Transition) was 0.1979, the “Cish Change in Gene Expression (Weighted Difference)” value (15 min to 30 min Transition) was 1.725 and the “Cox17 Change in Gene Expression (Weighted Difference)” value (15 min to 30 min Transition) was −0.6572. The “Cysltr1 Change in Gene Expression (Weighted Difference)” value (15 min to 30 min Transition) was −1.813, the “Egr1 Change in Gene Expression (Weighted Difference)” value (15 min to 30 min Transition) was 4.967 and the “Egr2 Change in Gene Expression (Weighted Difference)” value (15 min to 30 min Transition) was 1.229. For the same compound, the “Frk Change in Gene Expression (Weighted Difference)” value (15 min to 30 min Transition) was −5.361, the “Gbp8 Change in Gene Expression (Weighted Difference)” value (15 min to 30 min Transition) was 0.5698 and the “Gem Change in Gene Expression (Weighted Difference)” value (15 min to 30 min Transition) was 2.697. The “Gimap7 Change in Gene Expression (Weighted Difference)” value (15 min to 30 min Transition) was −0.2249, the “Ier3 Change in Gene Expression (Weighted Difference)” value (15 min to 30 min Transition) was 12.73 and the “Il10ra Change in Gene Expression (Weighted Difference)” value (15 min to 30 min Transition) was 2.226. The “Jun Change in Gene Expression (Weighted Difference)” value (15 min to 30 min Transition) was 1.717, the “Junb Change in Gene Expression (Weighted Difference)” value (15 min to 30 min Transition) was 3.924 and the “LOC100046066 Change in Gene Expression (Weighted Difference)” value (15 min to 30 min Transition) was −2.104. For the same compound, the “Madcam1 Change in Gene Expression (Weighted Difference)” value (15 min to 30 min Transition) was 0.2824, the “Med17 Change in Gene Expression (Weighted Difference)” value (15 min to 30 min Transition) was −0.2295 and the “Mkks Change in Gene Expression (Weighted Difference)” value (15 min to 30 min Transition) was −2.533. The “Mndal Change in Gene Expression (Weighted Difference)” value (15 min to 30 min Transition) was 1.805, the “Myc Change in Gene Expression (Weighted Difference)” value (15 min to 30 min Transition) was 2.987 and the “N6amt2 Change in Gene Expression (Weighted Difference)” value (15 min to 30 min Transition) was −0.7998. For the same compound, the “Nr4a1 Change in Gene Expression (Weighted Difference)” value (15 min to 30 min Transition) was 5.842, the “P2ry1 Change in Gene Expression (Weighted Difference)” value (15 min to 30 min Transition) was −2.116 and the “Prf1 Change in Gene Expression (Weighted Difference)” value (15 min to 30 min Transition) was −0.05377. The “Sik1 Change in Gene Expression (Weighted Difference)” value (15 min to 30 min Transition) was 2.597, the “Slc39a8 Change in Gene Expression (Weighted Difference)” value (15 min to 30 min Transition) was 25.27 and the “Tmed3 Change in Gene Expression (Weighted Difference)” value (15 min to 30 min Transition) was −0.4993. The “Zfp36 Change in Gene Expression (Weighted Difference)” value (15 min to 30 min Transition) was 10.7, the “% Shared (DBP-induced genes also TLR-induced)” value (30 min) was 64% and the “DBP Unique genes, number” value (30 min) was 107. The “DBP-Induced genes (≧2x Increased Expression), number” value (30 min) was 297, the “TLR-Induced among DBP-induced genes, number” value (30 min) was 190^# and the “Acot5 Change in Gene Expression (Weighted Difference)” value (30 min to 1 hr Transition) was 1.878. For the same compound, the “Akr1c18 Change in Gene Expression (Weighted Difference)” value (30 min to 1 hr Transition) was 1.114, the “Atp2c2 Change in Gene Expression (Weighted Difference)” value (30 min to 1 hr Transition) was −0.008704 and the “Btg2 Change in Gene Expression (Weighted Difference)” value (30 min to 1 hr Transition) was 2.926. The “Ccr4 Change in Gene Expression (Weighted Difference)” value (30 min to 1 hr Transition) was 0.2055, the “Cdh10 Change in Gene Expression (Weighted Difference)” value (30 min to 1 hr Transition) was 0.2384 and the “Cish Change in Gene Expression (Weighted Difference)” value (30 min to 1 hr Transition) was 1.825. For the same compound, the “Cox17 Change in Gene Expression (Weighted Difference)” value (30 min to 1 hr Transition) was −0.02512, the “Cysltr1 Change in Gene Expression (Weighted Difference)” value (30 min to 1 hr Transition) was 0.06681 and the “Egr1 Change in Gene Expression (Weighted Difference)” value (30 min to 1 hr Transition) was 5.495. For the same compound, the “Egr2 Change in Gene Expression (Weighted Difference)” value (30 min to 1 hr Transition) was 2.326, the “Frk Change in Gene Expression (Weighted Difference)” value (30 min to 1 hr Transition) was 3.985 and the “Gbp8 Change in Gene Expression (Weighted Difference)” value (30 min to 1 hr Transition) was 0.1048. For the same compound, the “Gem Change in Gene Expression (Weighted Difference)” value (30 min to 1 hr Transition) was 3.044 and the “Gimap7 Change in Gene Expression (Weighted Difference)” value (30 min to 1 hr Transition) was −0.004049.
